Patent US7268128B2, “1,3,5-trisubstituted-5-phenyl and 5-pyridyl pyrazolopyrimidinone derivatives having PDE7 inhibiting action” (Ausbio Pharma Co., Ltd., priority 2001, dated 2007)

Target: T1, PDE7 (type VII phosphodiesterase) (Homo sapiens, UniProt Q13946)
T1 construct: endogenous in cells; host or cells: MOLT-4 (ATCC CRL-1582), soluble fraction, HiTrapQ anion-exchange fraction
Experiment: PDE7 inhibiting activity (3H-cAMP hydrolysis, active fraction from MOLT-4 cells)
Format: biochemical
Conditions: PDE7 fraction from MOLT-4 cells, 0.064 μM cAMP, 10 μM rolipram present, 2 hours at 25° C.; read-out: IC50 values for phosphodiesterase inhibiting activities (PDE7)
Method: To evaluate the compounds of the present invention for the ability to suppress PDE7 (type VII phosphodiesterase), the method of Biochemical Pharmacol. 48(6), 1219-1223 (1994) was partially modified to perform the following assay:
1) PDE7 (type VII phosphodiesterase) active fraction was obtained. That is, human acute lymphoblastoid lymphoma T cell strain MOLT-4 (purchasable from ATCC under ATCC No. CRL-1582) was cultured in RPMI1640 medium containing 10% fetal bovine serum to obtain 5×10^8 MOLT4 cells. The cells were harvested by centrifugation, and suspended in 10 ml of buffer A (25 mM tris-HCl, 5 mM 2-mercaptoethanol, 2 mM benzamidine, 2 mM EDTA, 0.1 mM 4-(2-aminoethyl)benzenesulfonyl hydrochloride, pH 7=7.5). The cells were homogenized in a Polytoron homogenizer, and centrifuged (4° C., 25,000 G, 10 min). The supernatant was further ultracentrifuged (4° C., 100,000 G, 60 min), and the resulting supernatant was filtered through a 0.2 μm filter to obtain a soluble fraction.
2) HiTrapQ column (5 ml×2) equilibrated with buffer A was charged with the resulting soluble fraction. Phosphodiesterase was eluted using 300 ml of buffer A containing a linear gradient solution of 0 to 0.8M sodium chloride to collect sixty 5 ml fractions. Each fraction was tested for cAMP metabolizing phosphodiesterase activity.
3) The test compounds at desired concentrations were each reacted for 2 hours at 25° C. in a reactant mixture containing 20 mM tris-HCl (pH 7.5), 1 mM MgCl2, 100 μM EDTA, 330 μg/ml bovine serum albumin, 4 μg/ml 5′-nucleotidase, 0.1 μCi^3H-cAMP (0.064 μM cAMP), 10 μM rolipram, and the type VII phosphodiesterase stored solution. QAE-Sephadex suspended in 10 mM HEPES-Na (pH 7.0) was added to the reaction mixture, and the mixture was allowed to stand for 5 minutes. Then, the supernatant was recovered, and QAE-Sephadex was further added, followed by allowing the mixture to stand for 5 minutes. Then, the resulting supernatant was measure for radioactivity.
4) IC50, as the concentration of the test compound that inhibited 50% of the metabolic activity of PDE7, was calculated for each of the compounds.

T1 sequence (Q13946 whole entry): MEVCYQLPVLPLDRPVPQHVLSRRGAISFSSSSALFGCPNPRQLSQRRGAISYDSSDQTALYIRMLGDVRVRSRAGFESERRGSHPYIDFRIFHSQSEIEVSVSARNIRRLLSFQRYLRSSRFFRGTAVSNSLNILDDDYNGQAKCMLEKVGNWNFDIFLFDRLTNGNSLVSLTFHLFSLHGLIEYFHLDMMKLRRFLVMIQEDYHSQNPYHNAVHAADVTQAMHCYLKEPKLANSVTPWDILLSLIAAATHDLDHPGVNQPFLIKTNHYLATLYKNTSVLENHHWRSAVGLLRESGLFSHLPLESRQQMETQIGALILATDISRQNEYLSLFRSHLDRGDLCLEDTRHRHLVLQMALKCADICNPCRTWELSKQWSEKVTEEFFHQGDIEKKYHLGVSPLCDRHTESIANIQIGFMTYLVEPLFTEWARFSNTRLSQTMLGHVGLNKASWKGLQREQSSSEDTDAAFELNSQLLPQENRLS

Compound | IC50 [µM]
CCOc1cc(NCCOC)ccc1-c1nc2c(c(C3CCCCC3)nn2C)c(=O)[nH]1 [Example 117, 3-Cyclohexyl-6-{2-ethoxy-4-[(2-methoxyethyl)amino]phenyl}-1-methyl-1,5-dihydro-4H-pyrazolo[3,4-d]pyrimidin-4-one] | ≤ 0.01
COc1cc(C2=CCN(Cc3ccccc3)CC2)ccc1-c1nc2c(C)nn(C3CCCCC3)c2c(=O)[nH]1 [Example 272, 5-[4-(1-Benzyl-1,2,3,6-tetrahydro-4-pyridinyl)-2-methoxyphenyl]-1-cyclohexyl-3-methyl-1,6-dihydro-7H-pyrazolo[4,3-d]pyrimidin-7-one] | ≤ 1
COc1cc(S(=O)(=O)N(C)CCO)ccc1-c1nc2c(C)nn(C3CCCCC3)c2c(=O)[nH]1 [Example 213, 4-(1-Cyclohexyl-3-methyl-7-oxo-6,7-dihydro-1H-pyrazolo[4,3-d]pyrimidin-5-yl)-N-(2-hydroxyethyl)-3-methoxy-N-methylbenzenesulfonamide] | ≤ 1
COc1cc(N2CCOC2=O)ccc1-c1nc2c(c(C3CCCCC3)nn2C)c(=O)[nH]1 [Example 143, 3-Cyclohexyl-6-[2-methoxy-4-(2-oxo-1,3-oxazolidin-3-yl)phenyl]-1-methyl-1,5-dihydro-4H-pyrazolo[3,4-d]pyrimidin-4-one] | ≤ 0.01
COc1cc(CN2CCC(O)CC2)ccc1-c1nc2c(C)nn(C3CCCCC3)c2c(=O)[nH]1 [Example 236, 1-Cyclohexyl-5-{4-[(4-hydroxy-1-piperidinyl)methyl]-2-methoxyphenyl}-3-methyl-1,6-dihydro-7H-pyrazolo[4,3-d]pyrimidin-7-one] | ≤ 1
COc1cc(N2CCNC2=O)ccc1-c1nc2c(c(C3CCCCC3)nn2C)c(=O)[nH]1 [Example 144, 3-Cyclohexyl-6-[2-methoxy-4-(2-oxo-1-imidazolidinyl)phenyl]-1-methyl-1,5-dihydro-4H-pyrazolo[3,4-d]pyrimidin-4-one] | ≤ 0.01
COc1cc(S(=O)(=O)N2CCCNCC2)ccc1-c1nc2c(C)nn(C3CCCCC3)c2c(=O)[nH]1 [Example 203, 1-Cyclohexyl-5-[4-(1,4-diazepan-1-ylsulfonyl)-2-methoxyphenyl]-3-methyl-1,6-dihydro-7H-pyrazolo[4,3-d]pyrimidin-7-one monomethanesulfonate] | ≤ 1
CCNC1CCN(c2ccc(-c3nc4c(c(C5CCCCC5)nn4C)c(=O)[nH]3)c(OC)c2)CC1 [Example 97, 3-Cyclohexyl-6-{2-methoxy-4-[4-(ethylamino)-1-piperidinyl]phenyl}-1-methyl-1,5-dihydro-4H-pyrazolo[3,4-d]pyrimidin-4-one] | ≤ 0.01
COc1cc(N2CCNCC2)ccc1-c1nc2c(c(C3CCCCCC3)nn2C)c(=O)[nH]1 [Example 78, 3-Cycloheptyl-6-[2-methoxy-4-(1-piperazinyl)phenyl]-1-methyl-1,5-dihydro-4H-pyrazolo[3,4-d]pyrimidin-4-one monomethanesulfonate] | ≤ 0.01
CCN1CCCN(c2ccc(-c3nc4c(C)nn(C5CCCCC5)c4c(=O)[nH]3)c(OC)c2)CC1 [Example 127, 1-Cyclohexyl-5-[4-(4-ethyl-1,4-diazepan-1-yl)-2-methoxyphenyl]-3-methyl-1,6-dihydro-7H-pyrazolo[4,3-d]pyrimidin-7-one] | ≤ 1
COc1cc(S(=O)(=O)N2CCN(CCO)CC2)ccc1-c1nc2c(C)nn(C3CCCCC3)c2c(=O)[nH]1 [Example 216, 1-Cyclohexyl-5-(4-{[4-(2-hydroxyethyl)-1-piperazinyl]sulfonyl}-2-methoxyphenyl)-3-methyl-1,6-dihydro-7H-pyrazolo[4,3-d]pyrimidin-7-one] | ≤ 1
COc1cc(N2CCCN(C(C)=O)CC2)ccc1-c1nc2c(C)nn(C3CCCCC3)c2c(=O)[nH]1 [Example 126, 5-[4-(4-Acetyl-1,4-diazepan-1-yl)-2-methoxyphenyl]-1-cyclohexyl-3-methyl-1,6-dihydro-7H-pyrazolo[4,3-d]pyrimidin-7-one] | ≤ 1
COc1cc(S(=O)(=O)N2CCN(C)CC2)ccc1-c1nc2c(c(C3CCCCC3)nn2C)c(=O)[nH]1 [Example 50, 3-Cyclohexyl-6-{2-methoxy-4-[(4-methyl-1-piperazinyl)sulfonyl]phenyl}-1-methyl-1,5-dihydro-4H-pyrazolo[3,4-d]pyrimidin-4-one monochloride] | ≤ 1
CNCCCN(C)c1ccc(-c2nc3c(C)nn(C4CCCCC4)c3c(=O)[nH]2)c(OC)c1 [Example 111, 1-Cyclohexyl-5-(2-methoxy-4-{methyl[3-(methylamino)propyl]amino}phenyl)-3-methyl-1,6-dihydro-7H-pyrazolo[4,3-d]pyrimidin-7-one monofumarate] | ≤ 0.01
COc1cc(OC2CCN(C)CC2)ccc1-c1nc2c(c(C3CCCCC3)nn2C)c(=O)[nH]1 [Example 42, 3-Cyclohexyl-6-{2-methoxy-4-[(-methyl-4-piperidinyl)oxy]phenyl}-1-methyl-1,5-dihydro-4H-pyrazolo[3,4-d]pyrimidin-4-one monomaleate] | ≤ 1
COc1cc(S(=O)(=O)NCCO)ccc1-c1nc2c(c(C3CCCCC3)nn2C)c(=O)[nH]1 [Example 58, 4-(3-Cyclohexyl-1-methyl-4-oxo-4,5-dihydro-1H-pyrazolo[3,4-d]pyrimidin-6-yl)-N-(2-hydroxyethyl)-3-methoxybenzenesulfonamide] | ≤ 1
COc1cc(C2=CCN(C)CC2)ccc1-c1nc2c(C)nn(C3CCCCC3)c2c(=O)[nH]1 [Example 123, 1-Cyclohexyl-5-[2-methoxy-4-(1-methyl-1,2,3,6-tetrahydro-4-pyridinyl)phenyl]-3-methyl-1,6-dihydro-7H-pyrazolo[4,3-d]pyrimidin-7-one] | ≤ 1

Other lines, results leading:

IC50 [µM] | Compound
≤ 1 | COc1cc(S(=O)(=O)N2CCNCC2)ccc1-c1nc2c(C)nn(C3CCCCC3)c2c(=O)[nH]1 [Example 217, 1-Cyclohexyl-5-[2-methoxy-4-(1-piperazinylsulfonyl)phenyl]-3-methyl-1,6-dihydro-7H-pyrazolo[4,3-d]pyrimidin-7-one]
≤ 1 | COc1cc(S(=O)(=O)N2CCC(N)CC2)ccc1-c1nc2c(c(C3CCCCC3)nn2C)c(=O)[nH]1 [Example 175, 6-{4-[(4-Amino-1-piperidinyl)sulfonyl]-2-methoxyphenyl}-3-cyclohexyl-1-methyl-1,5-dihydro-4H-pyrazolo[3,4-d]pyrimidin-4-one monomethanesulfonate]
≤ 1 | COc1cc(N2CC[C@@H](O)C2)ccc1-c1nc2c(C)nn(C3CCCCC3)c2c(=O)[nH]1 [Example 270, 1-Cyclohexyl-5-{4-[(3R)-3-hydroxypyrrolidinyl]-2-methoxyphenyl}-3-methyl-1,6-dihydro-7H-pyrazolo[4,3-d]pyrimidin-7-one]
≤ 1 | COc1cc(N2CCCNCC2)c(F)cc1-c1nc2c(C)nn(C3CCCCC3)c2c(=O)[nH]1 [Example 266, 1-Cyclohexyl-5-[4-(1,4-diazepan-1-yl)-5-fluoro-2-methoxyphenyl]-3-methyl-1,6-dihydro-7H-pyrazolo[4,3-d]pyrimidin-7-one]
≤ 0.01 | CCOc1cc(N2CCC(NC)CC2)ccc1-c1nc2c(c(C3CCCCC3)nn2C)c(=O)[nH]1 [Example 90, 3-Cyclohexyl-6-{2-ethoxy-4-[4-(methylamino)-1-piperidinyl]phenyl}-1-methyl-1,5-dihydro-4H-pyrazolo[3,4-d]pyrimidin-4-one monomethanesulfonate]
≤ 1 | COCCOc1ccc(-c2nc3c(c(C4CCCCC4)nn3C)c(=O)[nH]2)c(OC)c1 [Example 34, 3-Cyclohexyl-6-[2-methoxy-4-(2-methoxyethoxy)phenyl]-1-methyl-1,5-dihydro-4H-pyrazolo[3,4-d]pyrimidin-4-one]
≤ 0.01 | COc1cc(N2CCC(N)CC2)ccc1-c1nc2c(c(C3CCCCC3)nn2C)c(=O)[nH]1 [Example 185, 6-[4-(4-Amino-1-piperidinyl)-2-methoxyphenyl]-3-cyclohexyl-1-methyl-1,5-dihydro-4H-pyrazolo[3,4-d]pyrimidin-4-one monomethanesulfonate]
≤ 1 | COc1cc(O[C@@H]2CCOC2)ccc1-c1nc2c(c(C3CCCCC3)nn2C)c(=O)[nH]1 [Example 39, 3-Cyclohexyl-6-{2-methoxy-4-[(3R)-tetrahydro-3-furanyloxy]phenyl}-1-methyl-1,5-dihydro-4H-pyrazolo[3,4-d]pyrimidin-4-one]
≤ 0.01 | CCOc1cc(N2CCN(C)CC2)ccc1-c1nc2c(c(C3CCCCC3)nn2C)c(=O)[nH]1 [Example 87, 3-Cyclohexyl-6-[2-ethoxy-4-(4-methyl-1-piperazinyl)phenyl]-1-methyl-1,5-dihydro-4H-pyrazolo[3,4-d]pyrimidin-4-one monomethanesulfonate]
